Laboratory results: US20230227477A1, “COMPOUNDS FOR SENSING REACTIVE OXYGEN SPECIES AND METHODS FOR USING THE SAME” (WAKE FOREST UNIVERSITY HEALTH SCIENCES, priority 2020, published 2023)

Key:
[1] = DNFB trapping of released persulfide, LCMS (validation as ROS-activated persulfide donor); format: physicochemical; details: 200 μM compound, 1 mM DNFB
Experimental: Initially, 5 mM stock solutions of compound RAH393, compound 5, and 2,4-dinitrofluorobenzene (DNFB) were prepared in 200-proof ethanol. In addition, a 100 mM stock solution of hydrogen peroxide in ammonium bicarbonate buffer (1 mM, pH 7.0) was prepared immediately prior to use. To a conical vial containing 1500 μL of 1M ammonium bicarbonate was then added 80 μL of the 5 mM stock of compound RAH393 (or control compound 5), 400 μL of the 5 mM DNFB stock, and 20 μL of 100 mM hydrogen peroxide giving a final concentrations of 200 μM compound RAH393 (or compound 5), 1 mM DNFB, and 1 mM H2O2. At the designated timepoints, a 100 μL aliquot of the room-temperature reaction was diluted with 900 μL of HPLC-grade methanol with 0.1% formic acid for analysis. 75 μL of the resultant solution was then injected onto C18 reverse phase column (Agilent Technologies, SB-C18 Analytical HPLC Col. 4.6×150) and eluted with HPLC-grade methanol (0.1% formic acid) and HPLC-grade water (0.1% formic acid) at a flow rate of 200 μL/min using the following gradient: 0-2 min, 90:10 water:methanol; 2-8 min, 40:60 water:methanol; 8-30 min, 10:90 water:methanol; 30-40 min, 5:95 water:methanol. Retention times of lactone compound 3 (25.0 min), compound RAH393 (35.6 min), compound 5 (27.7 min), and DNFB (16.5 min) were independently validated. When this assay was run using compound RAH393, in addition to compound 7 (21.7 min), the tri- and tetrasulfides of N-acetylcysteamine were also present (14.1 min and 16.2 min, respectively), further confirming persulfide release from compound RAH393.

[2] = tested on: HeLa cells; experiment: Cytotoxicity in HeLa cells (phosphatase assay); format: cell-based, human; details: various concentrations, 5 h incubation
Experimental: First, compound RAH393 and lactone compound 3 were tested for cytotoxicity in HeLa cells. A population of cells (>6×10^6 cells/mL as determined with a hemocytometer) was diluted with FBS-free DMEM:F12-K, 1:1, 1% penicillin-streptomycin, and 1% L-glutamine to give a final concentration of 50,000 cells/mL. To a 96-well plate was added 100 μL of cell media solution resulting in a total of 5 k cells per well. Plates were then incubated at 37° C. in an atmosphere of 5% CO2 and 95% humidified air for 24 h. Fresh culture media (100 μL) was then added to each well of cells resulting in 200 μL of media per well followed by the addition of compound RAH393 or compound 3 at various concentrations (20 mM stock in biological-grade DMSO, resulting in no more than 1% DMSO per well). After incubating for 5 h, a phosphatase assay was used to establish cell viability as follows: Media was removed from each well and replaced with 100 μL of phosphatase solution (100 mg of phosphatase substrate, in 30 mL of 0.1 M NaOAc, pH 5.5, 0.1% Triton X-100 buffer). Following an incubation period of 30 min, 50 μL of 0.10 M NaOH was added to each well and viability was assessed spectrophotometrically at 405 nm using a 96-well plate reader (BioTek SYNERGY-HTX multi-mode reader, Winooski, Vt.). Assays were performed in triplicate and presented as the mean+/−STDEV.

[3] = tested on: HeLa cells; experiment: Protective effects on HeLa cells under H2O2-induced oxidative stress (CCK-8 viability); format: cell-based, human; details: pre-treatment 200 μM compound 1 h, then 200 μM H2O2 1 h, vs H2O2 alone
Experimental: Next, the protective effects of compound RAH393 on cultured HeLa cells which were under oxidative stress were examined. A population of cells (>6×10^6 cells/mL as determined with a hemocytometer) was diluted with FBS-free DMEM:F12-K, 1:1, 1% penicillin-streptomycin, and 1% L-glutamine to give a final concentration of 50,000 cells/mL. To a 96-well plate was added 100 μL of cell media solution resulting in a total of 5 k cells per well. Plates were then incubated at 37° C. in an atmosphere of 5% CO2 and 95% humidified air for 24 h. Confluent cells were then pre-incubated in FBS-free media with compound RAH393 (or compound 5) (200 μM) for 1 h followed by treatment with H2O2 (200 μM) for an additional 1 h incubation period. Control wells with H2O2 alone (200 μM) were also evaluated on the same plate. After a total incubation period of 2 h, cell contents were then replaced with 100 μL of fresh FBS-free media with 10% CCK-8. Cells were then incubated for 3 h at 37° C. and cell viability was assessed by measuring the resulting absorbance at 450 nm using a 96-well plate reader (BioTek SYNERGY-HTX multi-mode reader, Winooski, Vt.).

CC(=O)NCCSSC(=O)C(C)(C)Cc1ccccc1B1OC(C)(C)C(C)(C)O1 [compound RAH393]
formation of trapped disulfide compound 7 (persulfide release), LCMS ([1]; 1 mM H2O2, ammonium bicarbonate buffer, room temperature): formation of disulfide compound 7 was confirmed
production of lactone compound 3, LCMS (in words) ([1]; 1 mM H2O2, over a period of 25 min): linear increase in the production of lactone compound 3
cytotoxicity toward HeLa cells (in words) [2]: neither compound RAH393 nor lactone compound 3 were toxic
increase in cell viability [3]: 100%
